Data on one compound can be found in PMC11327196, “A phase 1 study to assess the absolute bioavailability, mass balance, pharmacokinetics, metabolism, and excretion of [^14C]-mobocertinib, an oral inhibitor of EGFR exon 20 insertion mutations, in healthy participants” (Investigational New Drugs, 2024).

The structures appear in SMILES notation.

The test system of data set [1] is EGFRex20ins mutation positive locally advanced or metastatic NSCLC. On the set-up: method as in doi:10.1016/j.annonc.2023.10.586. The conditions noted are these: mobocertinib versus chemotherapy, first-line; cited from earlier work.
Data set [2] in a line: Period 2 human ADME study: whole blood PK after oral solution [14C]-mobocertinib. The format is in vivo. How it is done:
This was a two-period, open-label, single-dose phase 1 study (NCT03811834) conducted at one clinical site (Celerion, Lincoln, Nebraska, USA) in healthy male participants. The primary objective of Period 1 was to determine the absolute bioavailability of mobocertinib following a single oral dose of 160 mg mobocertinib as capsules and a single intravenous (IV) microdose of 50 µg (~ 2 µCi) [^14C]-mobocertinib. The primary objectives of Period 2 were to (1) assess the cumulative excretion of total radioactivity in urine and feces (mass balance); (2) assess the metabolite profile of mobocertinib in plasma, urine, and feces; and (3) characterize the PK of mobocertinib, AP32960, and AP32914 in plasma, whole blood, and urine, and total radioactivity concentration equivalents in plasma and whole blood following a single oral dose of 160 mg (~ 100 µCi) [^14C]-mobocertinib as an oral solution. A sample size of 6 healthy males was selected without statistical considerations and deemed adequate to meet the study objectives. Furthermore, the sample size was limited based on clinical considerations for human ADME studies and to limit exposure to radioactivity.
After a washout of 8–9 days, participants returned to the clinic for Day − 1 of Period 2. On Day 1 of Period 2, after a fast of ≥ 10 h, participants received a single nominal dose of 160 mg (~ 100 µCi; whole body effective dose of 5.3 mrem for a 70-kg human) [^14C]-mobocertinib as a 70 mL oral solution. The actual doses administered ranged from 161 to 163 mg (92.4 to 93.9 µCi). Participants stayed in the clinic from Day − 1 until a discharge criterion (≥ 80% of the total administered radioactive dose was recovered in urine and feces or excretion of radioactivity in urine and feces combined had declined to ≤ 1% of the total administered dose per day for ≥ 2 consecutive intervals) was met, or up to 10 days postdose. To measure the total radioactivity and concentrations of mobocertinib, AP32960, and AP32914 in whole blood and plasma, 4 blood samples were collected predose, and at 0.5, 1, 2, 3, 4, 5, 6, 8, 12, 24, 36, 48, 72, 96, 120, 144, 168, 192, 216, and 240 h postdose; a fifth blood sample was collected for plasma metabolite profiling at predose and 1, 2, 4, 6, 12, 24, 48, 72, 96, 120, and 168 h postdose. Feces and urine were collected predose (feces within 48 h and urine within 24 h prior to dosing), 0–24 h (urine from 0–12 and 12–24 h), and then at 24-hour intervals up to 240 h postdose or until a discharge criterion was met. […] These 2 participants continued with at-home fecal sample collections. One participant provided fecal samples until Day 13 (264–288 h interval) and one participant provided fecal samples until Day 19 (408–432 h interval), after which they met a discharge criterion.
Plasma, whole blood, and urine samples were assayed for mobocertinib, AP32960, and AP32914 concentrations using liquid chromatography-tandem mass spectrometry (Q2 Solutions, Ithaca, New York, USA). The analytical range for each analyte was 0.250 to 500 ng/mL in whole blood and plasma, and 1.00 to 1000 ng/mL in urine. […] Urine and fecal samples were assayed for total radioactivity following the IV dose of [^14C]-mobocertinib in Period 1, and whole blood, plasma, urine, and fecal samples were assayed for total radioactivity following the oral dose of [^14C]-mobocertinib in Period 2 using liquid scintillation counting (LSC; Celerion, Lincoln, Nebraska, USA; LLOQs: Period 1 urine: 0.115–0.118 ng eq/g, feces: 0.720–0.759 ng eq/g; Period 2 whole blood: 87.3–112 ng eq/g, plasma: 116–132 ng eq/mL, urine: 37.8–46.8 ng eq/g, feces: 110–336 ng eq/g across participants). Urine and fecal samples collected in Period 1 that had total radioactivity concentration equivalents below the LLOQ of the Celerion LSC assay were sent to Pharmaron for measurement by AMS (LLOQ: urine: 0.0000253–0.00111 ng eq/g; feces: 0.000404–0.0278 ng eq/g across participants). The LSC and AMS assays were not cross-validated. […]

[3] abbreviates: Period 2, oral solution 160 mg [14C]-mobocertinib, whole blood, geometric mean (geometric CV%).
[4] abbreviates: Period 2, oral solution 160 mg [14C]-mobocertinib, blood-to-plasma, geometric mean (geometric CV%).
Setting [5] is: male, human, Period 2, oral solution 160 mg [14C]-mobocertinib, whole blood, geometric mean (geometric CV%).

For `C=CC(=O)Nc1cc(Nc2ncc(C(=O)OC(C)C)c(-c3cn(C)c4ccccc34)n2)c(OC)cc1N(C)CCN(C)C` [Mobocertinib], the “primary endpoint of phase 3 study” value in data set [1] is recorded as “not met”. Moreover, in data set [2] (Period 2, oral solution 160 mg [14C]-mobocertinib), the “geometric mean AUC∞ lower in whole blood compared to plasma” value is listed as 24%. In data set [2] (setting [3]), the CL/F was 222 (32.6) L/h, the “Molar AUC∞ ratio (analyte vs. total radioactivity)” value is on record as 0.00224 (28.3) and the t1/2z is recorded as 20.5 (25.4) h. Also, in data set [2] (setting [4]), the “B:P Ratio AUC∞” value is 0.763 (17.7) and the “B:P Ratio Cmax” value is 0.794 (17.1). Also, the tmax in data set [2] (Period 2, single oral solution 160 mg (~100 µCi) [14C]-mobocertinib, whole blood, median (range)) is 5.0 (2.0–6.0) h. Besides, in data set [2] (male, human, whole blood and plasma, Period 2, oral solution 160 mg [14C]-mobocertinib, range over time, read-out: arithmetic mean blood-to-plasma (B:P) concentration ratios), the blood plasma ratio was in the range of 0.6 to 1.04. In data set [2] (setting [5]), this compound yielded an area under the curve AUC(0-inf) of 729 ng·h/mL, an area under the curve AUC(0-t) of 718 ng·h/mL and a Cmax of 40.5 ng/mL. The Vd/F in data set [2] (male, human, Period 2, oral solution 160 mg [14C]-mobocertinib, whole blood, geometric mean (geometric CV%), read-out: Vz/F) was found to be 6550 L.

As usually defined, the AUC(0-inf) is the area under the concentration-time curve extrapolated to infinity. A lower AUC(0-inf) goes with less exposure. Broadly, the AUC(0-t) is the area under the concentration-time curve up to a stated or last time point. Broadly, the Cmax is the peak of the concentration-time curve.
